Assay results published in patent US10759751B2, “Substituted spirocyclohexanes as muscarinic M1 receptor and/or M4 receptor agonists” (Heptares Therapeutics Limited, priority 2016, dated 2020).
Read-outs that look alike come from different tables or passages of the source.

How the values were obtained:
Type in all cases: cell-based
[1] = molecular target: T1, human muscarinic M1 receptor (Homo sapiens, UniProt P11229); assay: Alphascreen Surefire phospho-ERK1/2 functional assay, M1; details: for EC50: phospho-ERK1/2, read-out: pEC50 M1 (converted); for Emax: CHO
T1 sequence (P11229 1-460): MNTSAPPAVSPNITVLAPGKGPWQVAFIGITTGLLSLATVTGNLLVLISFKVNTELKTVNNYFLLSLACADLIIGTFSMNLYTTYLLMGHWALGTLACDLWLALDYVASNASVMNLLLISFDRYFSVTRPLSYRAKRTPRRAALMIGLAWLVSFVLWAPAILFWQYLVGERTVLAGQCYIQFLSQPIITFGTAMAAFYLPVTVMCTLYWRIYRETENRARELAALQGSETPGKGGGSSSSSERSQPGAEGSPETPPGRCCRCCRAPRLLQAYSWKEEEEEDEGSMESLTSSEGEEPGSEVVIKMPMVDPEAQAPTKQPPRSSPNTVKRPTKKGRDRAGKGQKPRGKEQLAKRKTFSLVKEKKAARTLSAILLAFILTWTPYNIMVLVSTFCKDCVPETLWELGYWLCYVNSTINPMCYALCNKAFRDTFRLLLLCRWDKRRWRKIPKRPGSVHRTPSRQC
Procedure, shortened: (§1)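 Read-out: AlphaScreen SureFire signal for phospho-ERK1/2 in lysates of stably transfected CHO cells, read after 2 h in the dark. Cells were serum-starved overnight and given agonist for 5 min at 37 °C. Values are pEC50 and Emax.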

[2] = molecular target: T2, human muscarinic M2 receptor (Homo sapiens, UniProt P08172); assay: Alphascreen Surefire phospho-ERK1/2 functional assay, M2; details: for EC50: CHO cells stably expressing human M2, phospho-ERK1/2, read-out: pEC50 M2 (converted); for Emax: CHO, read-out: M2 % Emax cf. ACh
T2 sequence (P08172 1-466): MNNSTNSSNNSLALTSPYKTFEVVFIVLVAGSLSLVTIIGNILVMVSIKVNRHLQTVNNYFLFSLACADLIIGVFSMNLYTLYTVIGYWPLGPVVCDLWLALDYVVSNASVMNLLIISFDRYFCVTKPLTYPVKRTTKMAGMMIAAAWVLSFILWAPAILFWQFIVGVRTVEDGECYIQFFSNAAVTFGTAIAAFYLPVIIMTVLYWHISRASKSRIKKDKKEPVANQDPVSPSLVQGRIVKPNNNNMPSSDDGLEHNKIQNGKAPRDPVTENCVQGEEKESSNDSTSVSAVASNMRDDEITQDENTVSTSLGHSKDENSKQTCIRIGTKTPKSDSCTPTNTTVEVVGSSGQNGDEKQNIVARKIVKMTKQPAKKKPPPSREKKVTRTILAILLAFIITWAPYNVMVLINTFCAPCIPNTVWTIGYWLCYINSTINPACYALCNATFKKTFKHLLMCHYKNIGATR
Protocol: (§2) Functional assays were performed using the Alphascreen Surefire phospho-ERK1/2 assay (Crouch & Osmond, Comb. Chem. High Throughput Screen, 2008). ERK1/2 phosphorylation is a downstream consequence of both Gq/11 and Gi/o protein coupled receptor activation, making it highly suitable for the assessment of M1, M3 (Gq/11 coupled) and M2, M4 receptors (Gi/o coupled), rather than using different assay formats for different receptor subtypes. CHO cells stably expressing the human muscarinic M1, M2, M3 or M4 receptor were plated (25K/well) onto 96-well tissue culture plates in MEM-alpha+10% dialysed FBS. Once adhered, cells were serum-starved overnight. Agonist stimulation was performed by the addition of 5 μL agonist to the cells for 5 min (37° C.). Media was removed and 50 μL of lysis buffer added. After 15 min, a 4 μL sample was transferred to 384-well plate and 7 μL of detection mixture added. Plates were incubated for 2 h with gentle agitation in the dark and then read on a PHERAstar plate reader.
(§3) pEC50 and Emax figures were calculated from the resulting data for each receptor subtype.

[3] = molecular target: T3, human muscarinic M3 receptor (Homo sapiens, UniProt P20309); assay: Alphascreen Surefire phospho-ERK1/2 functional assay, M3; details: for EC50: CHO cells stably expressing human M3, phospho-ERK1/2, read-out: pEC50 M3 (converted); for Emax: CHO, read-out: M3 % Emax cf. ACh
T3 construct: expressed in transfected cells
Protocol: as §2, §3

[4] = molecular target: T4, human muscarinic M4 receptor (Homo sapiens, UniProt P08173); assay: Alphascreen Surefire phospho-ERK1/2 functional assay, M4; details: for EC50 / M4 % Emax cf. ACh: CHO cells stably expressing human M4; for EC50: phospho-ERK1/2, read-out: pEC50 M4 (converted); for Emax: CHO
T4 construct: expressed in transfected cells
T4 sequence (P08173 1-479): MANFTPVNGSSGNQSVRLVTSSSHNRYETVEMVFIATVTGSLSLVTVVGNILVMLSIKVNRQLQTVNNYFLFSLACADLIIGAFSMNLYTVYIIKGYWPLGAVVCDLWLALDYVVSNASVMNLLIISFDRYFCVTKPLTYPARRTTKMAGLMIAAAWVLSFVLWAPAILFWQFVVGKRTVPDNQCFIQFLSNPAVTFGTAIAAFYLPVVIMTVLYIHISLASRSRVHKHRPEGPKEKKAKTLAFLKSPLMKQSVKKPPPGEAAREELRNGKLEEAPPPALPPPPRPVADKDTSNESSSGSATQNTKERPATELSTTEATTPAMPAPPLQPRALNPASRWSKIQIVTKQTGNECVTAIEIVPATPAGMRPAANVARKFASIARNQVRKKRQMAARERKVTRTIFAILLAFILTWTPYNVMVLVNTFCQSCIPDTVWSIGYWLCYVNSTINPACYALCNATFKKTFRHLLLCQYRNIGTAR
Procedure, shortened: as §1

[5] = CHO cells stably expressing human M1
[6] = read-out: M1 % Emax cf. ACh, CHO cells stably expressing human M1, Emax relative to ACh
[7] = read-out: M4 % Emax cf. ACh, CHO cells stably expressing human M4, Emax relative to ACh

T3 sequence (P20309 whole entry): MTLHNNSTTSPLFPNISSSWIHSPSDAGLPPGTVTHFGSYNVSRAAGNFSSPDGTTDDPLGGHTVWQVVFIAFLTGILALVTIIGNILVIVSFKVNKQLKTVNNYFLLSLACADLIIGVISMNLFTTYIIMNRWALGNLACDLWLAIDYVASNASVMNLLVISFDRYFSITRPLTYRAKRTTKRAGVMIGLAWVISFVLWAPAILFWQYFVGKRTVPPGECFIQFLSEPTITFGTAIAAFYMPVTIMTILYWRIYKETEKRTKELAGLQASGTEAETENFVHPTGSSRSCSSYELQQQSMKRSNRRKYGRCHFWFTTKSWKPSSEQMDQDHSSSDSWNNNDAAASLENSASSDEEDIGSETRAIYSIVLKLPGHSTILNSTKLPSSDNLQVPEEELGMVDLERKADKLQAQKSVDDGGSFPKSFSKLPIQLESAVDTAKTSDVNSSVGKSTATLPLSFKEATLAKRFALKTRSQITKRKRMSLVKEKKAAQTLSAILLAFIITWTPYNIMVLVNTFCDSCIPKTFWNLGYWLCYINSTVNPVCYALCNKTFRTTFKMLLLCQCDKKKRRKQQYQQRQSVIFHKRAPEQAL

Row | SMILES | EC50 [1, 5] [µM] | Emax ([1]; read-out: M1 % Emax cf. ACh) [%] | EC50 [2] [µM] | Emax [2] [%] | EC50 [3] [µM] | Emax [3] [%] | EC50 [4] [µM] | Emax ([4]; read-out: M4 % Emax cf. ACh) [%] | Emax [1, 6] [%] | Emax [4, 7] [%] | M4 % Emax cf. ACh ([4]; Emax relative to ACh) [%] | M1 % Emax cf. ACh ([1]; CHO cells stably expressing human M1, Emax relative to ACh) [%]
1 | CCOC(=O)N1CCC2(CCN(C3CCC(C#N)(c4ccccc4)CC3)CC2)C1 (single isomer, unassigned) [13-1 Isomer 2] | 0.000447 | 121 | > 20 | 21 | > 20 | 7 | 0.000145 | 121 | – | – | – | –
2 | Cc1ccc2c(c1)C1(CCC(N3CCC[C@@H](c4nc(C)no4)C3)CC1)C(=O)N2 (single isomer, unassigned) [22-3 Isomer 1] | 0.123 | – | > 20 | 17 | > 20 | 59 | 0.141 | – | 51 | 40 | – | –
3 | CCOC(=O)N[C@H]1CCN(C2CCC(C#N)(c3cccc(OC)c3)CC2)C1 (single isomer, unassigned) [1-11 Isomer 2] | 0.148 | – | > 20 | 0 | > 20 | 1 | > 20 | – | 99 | 9 | – | –
4 | CCOC(=O)N[C@@H]1CCN(C2CCC(C#N)(c3ccccc3)CC2)C1 (single isomer, unassigned) [1-2 Isomer 2] | 0.209 | – | > 20 | 23 | > 20 | 1 | 0.741 | – | 102 | 52 | – | –
5 | CCOC(=O)N1CCC2(CCN(C3CCC4(CC3)C(=O)Nc3ccccc34)CC2)C1 (single isomer, unassigned) [12-1 isomer 1] | 0.0138 | – | > 20 | 18 | > 20 | 1 | 0.00479 | – | 109 | 82 | – | –
6 | CCOC(=O)N(C)[C@@H]1CCN(C2CCC(C#N)(c3ccccc3)CC2)C1 (single isomer, unassigned) [1-21 Isomer 2] | 0.11 | 64 | > 20 | 1 | > 20 | 5 | > 20 | 15 | – | – | – | –
7 | CCOC(=O)N[C@H]1CCN(C2CCC3(CC2)C(=O)Nc2cccc(C)c23)C1 (single isomer, unassigned) [2-6 isomer 1] | 0.186 | – | > 20 | 11 | > 20 | 16 | 0.0603 | – | 66 | 54 | – | –
8 | CCOC(=O)N[C@H]1CCN(C2CCC(C#N)(c3cccc(F)c3)CC2)C1 (single isomer, unassigned) [1-3 Isomer 2] | 0.0309 | – | > 20 | 0 | > 20 | 1 | > 20 | – | 119 | 13 | – | –
9 | COc1ccc2c(c1)C1(CCC(N3CCC4(CC(c5nc(C)no5)C4)C3)CC1)C(=O)N2 (single isomer, unassigned) [26-2 Isomer 1] | 0.0162 | – | > 20 | 6 | > 20 | 4 | 0.0813 | – | 38 | – | 35 | –
10 | CCc1noc(C2CC3(C2)CN(C2CCC4(CC2)C(=O)Nc2ccccc24)C3)n1 (single isomer, unassigned) [25-1 Isomer 1] | 0.617 | – | > 20 | 13 | > 20 | 6 | 0.155 | – | 43 | 70 | – | –
11 | CCOC(=O)N[C@H]1CCN(C2CCC(C#N)(c3cccc(C)c3)CC2)C1 (single isomer, unassigned) [1-9 Isomer 2] | 0.0275 | – | > 20 | 6 | > 20 | 2 | > 20 | – | 99 | 12 | – | –
12 | CCOC(=O)N[C@H]1CCN(C2CCC(C#N)(c3ccc(F)cc3)CC2)C1 (single isomer, unassigned) [1-4 Isomer 2] | 0.0355 | – | > 20 | 3 | > 20 | 8 | > 20 | – | 98 | 7 | – | –
13 | CCOC(=O)N1CCCN(C2CCC3(CC2)C(=O)Nc2cccc(C)c23)CC1 (single isomer, unassigned) [4-8 isomer 2] | 0.204 | – | > 20 | 17 | > 20 | 9 | 0.0977 | – | – | – | 95 | 97
14 | CCOC(=O)N1CCCN(C2CCC(c3nc(CC)c(C)[nH]3)CC2)CC1 (single isomer, unassigned) [5-1 Isomer 2] | 0.0661 | – | > 20 | 8 | > 20 | 7 | 0.513 | – | 115 | 26 | – | –
15 | Cc1noc([C@@H]2CCCN(C3CCC4(CC3)C(=O)Nc3ccccc34)C2)n1 (single isomer, unassigned) [22-1 Isomer 1] | 0.229 | – | > 20 | 11 | > 20 | 11 | 0.398 | – | 83 | 47 | – | –
16 | Cc1noc([C@H]2CC[C@@H](NC3CCC(C#N)(c4ccccn4)CC3)C2)n1 (single isomer, unassigned) [19-1 Isomer 2] | 1.74 | – | > 20 | 21 | > 20 | 8 | 0.224 | – | 45 | 83 | – | –
17 | CCOC(=O)N1CCCN(C2CCC(C#N)(c3cccc(Cl)c3)CC2)CC1 (mixture of isomers) [3-5 mixture of isomers] | 0.0832 | – | > 20 | 5 | > 20 | 36 | 0.309 | – | 101 | 47 | – | –
18 | CCOC(=O)N1CCCN(C2CCC(C#N)(c3ccc(Cl)cn3)CC2)CC1 (mixture of isomers) [3-16 mixture of isomers] | 0.00661 | – | > 20 | 10 | > 20 | 39 | 0.126 | – | 103 | 90 | – | –
